Measurements published in ChEMBL document CHEMBL3301562, “MMV Box screening against Plasmodium falciparum protein kinases and aminoacyl tRNA synthetases”.

How the values were obtained:
Format in all cases: functional
[1] = biological target: T1, Proline--tRNA ligase (Plasmodium falciparum (isolate 3D7), UniProt Q8I5R7); assay: MMV: ProRS recombinant Plasmodium falciparum Prolyl-tRNA-synthetase, assay with yeast tRNA, ATP, and proline and 3 uM MMV malaria box compound, assay read out with kinase glo as % inhibition.
T1 sequence (Q8I5R7 whole entry): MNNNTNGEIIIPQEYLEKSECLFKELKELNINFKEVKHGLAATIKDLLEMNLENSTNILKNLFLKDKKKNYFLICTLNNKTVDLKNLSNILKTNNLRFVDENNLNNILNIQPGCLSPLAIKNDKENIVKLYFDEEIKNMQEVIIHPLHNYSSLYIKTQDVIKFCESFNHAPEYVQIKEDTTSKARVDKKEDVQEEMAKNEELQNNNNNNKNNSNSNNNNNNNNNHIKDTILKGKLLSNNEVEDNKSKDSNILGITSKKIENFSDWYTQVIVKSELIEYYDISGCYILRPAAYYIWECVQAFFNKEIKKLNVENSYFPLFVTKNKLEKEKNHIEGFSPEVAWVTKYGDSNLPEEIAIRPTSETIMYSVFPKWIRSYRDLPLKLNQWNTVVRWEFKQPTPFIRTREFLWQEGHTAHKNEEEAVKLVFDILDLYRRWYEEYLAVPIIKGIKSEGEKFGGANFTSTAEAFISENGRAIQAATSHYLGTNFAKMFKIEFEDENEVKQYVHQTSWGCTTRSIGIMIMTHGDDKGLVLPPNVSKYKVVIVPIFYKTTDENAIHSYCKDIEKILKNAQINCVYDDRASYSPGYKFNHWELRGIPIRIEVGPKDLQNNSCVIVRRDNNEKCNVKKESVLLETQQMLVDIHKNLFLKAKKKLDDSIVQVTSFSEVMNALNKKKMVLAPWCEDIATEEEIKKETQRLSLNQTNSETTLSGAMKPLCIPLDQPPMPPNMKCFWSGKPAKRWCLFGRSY

[2] = biological target: T2, Putative uncharacterized protein pk7 (Plasmodium falciparum, UniProt O96214); assay: Final concentrations were 1 uM ATP, 2 mM DTT, 20 mM MgCl2, 2 mM MnCl2, 0.01% BSA, and 6 ug/ml PK7, in a buffer of 20 mM Tris-HCl (pH 7.5). The enzyme itself was the only substrate present (since autophosphorylation occurs); 100 uM 1NA-PP1 was used as a control inhibitor. Incubation time was 3 hours.
T2 sequence (O96214 whole entry): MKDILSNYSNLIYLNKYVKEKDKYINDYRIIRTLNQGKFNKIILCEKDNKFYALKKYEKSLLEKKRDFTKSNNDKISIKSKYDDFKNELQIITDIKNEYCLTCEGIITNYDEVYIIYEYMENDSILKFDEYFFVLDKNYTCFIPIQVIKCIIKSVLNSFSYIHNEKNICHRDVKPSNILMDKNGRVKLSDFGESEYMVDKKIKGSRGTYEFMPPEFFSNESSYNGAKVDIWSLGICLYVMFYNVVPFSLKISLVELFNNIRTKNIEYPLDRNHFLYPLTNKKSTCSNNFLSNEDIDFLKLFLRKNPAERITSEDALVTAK

[3] = biological target: T3, Cdk-related protein kinase 6 (Plasmodium falciparum, UniProt O77239); assay: Final concentrations were 1.5 uM ATP, 5 mM MnCl2, and 15 ug/ml PK6 in a buffer of 100 mM Tris-HCl (pH 7.5). 50 ug/mL MBP was provided as the substrate; 10 uM staurosporine was used as a control inhibitor. Incubation time was 3 hours and 40 minutes.The catalytic activity of each kinase was considered proportional to ATP consumed, as determined from measurements of residual [ATP] with the luciferase-based reagent Kinase-Glo (Promega) following incubation. Luminescence (proportional to residual [ATP]) was measured on the plate readers FLx800 (BioTek Instruments, Winooski, VT, USA) and MicroBeta2.
T3 sequence (O77239 whole entry): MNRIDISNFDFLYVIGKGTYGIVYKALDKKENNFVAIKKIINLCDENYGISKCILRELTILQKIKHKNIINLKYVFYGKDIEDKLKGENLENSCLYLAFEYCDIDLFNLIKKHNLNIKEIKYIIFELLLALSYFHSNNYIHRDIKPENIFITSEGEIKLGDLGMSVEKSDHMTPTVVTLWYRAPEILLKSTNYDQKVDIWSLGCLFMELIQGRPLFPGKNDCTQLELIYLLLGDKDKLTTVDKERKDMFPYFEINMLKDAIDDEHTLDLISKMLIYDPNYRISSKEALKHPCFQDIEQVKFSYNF

[4] = biological target: Calcium-dependent protein kinase 1 (Plasmodium falciparum, UniProt P62344); assay: MMV: CDPK1 Protein kinase inhibition assay using recombinant PfCDPK1, syntide 2 peptide substrate, ATP and KinaseGlo to measure % inhibition at 1 uM MMV box compound.
[5] = biological target: T4, Calcium-dependent protein kinase 4 (Plasmodium falciparum (isolate 3D7), UniProt Q8IBS5); assay: MMV: CDPK4 Protein kinase inhibition assay using recombinant PfCDPK4, syntide2 peptide substrate, ATP and KinaseGlo to measure % inhibition at 1 uM MMV box compound.
T4 sequence (Q8IBS5 whole entry): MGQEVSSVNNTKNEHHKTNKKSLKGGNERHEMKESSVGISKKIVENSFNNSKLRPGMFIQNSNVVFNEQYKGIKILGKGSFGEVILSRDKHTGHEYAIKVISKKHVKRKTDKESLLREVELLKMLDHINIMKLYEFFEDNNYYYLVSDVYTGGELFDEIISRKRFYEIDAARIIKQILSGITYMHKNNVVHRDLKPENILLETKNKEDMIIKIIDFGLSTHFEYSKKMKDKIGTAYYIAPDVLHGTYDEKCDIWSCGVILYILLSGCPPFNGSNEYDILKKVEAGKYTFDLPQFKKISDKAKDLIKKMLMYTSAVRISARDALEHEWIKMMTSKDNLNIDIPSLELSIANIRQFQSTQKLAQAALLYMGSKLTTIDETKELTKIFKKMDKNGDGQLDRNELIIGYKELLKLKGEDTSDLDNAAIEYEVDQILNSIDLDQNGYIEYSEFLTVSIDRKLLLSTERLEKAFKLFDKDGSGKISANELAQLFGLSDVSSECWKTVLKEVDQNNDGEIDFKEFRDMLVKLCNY

[6] = biological target: Lysine--tRNA ligase (Plasmodium falciparum (isolate 3D7), UniProt Q8IDJ8); assay: MMV: KRS recombinant Plasmodium falciparum Lysyl-tRNA-synthetase, assay with yeast tRNA, ATP, and lysine and 3 uM MMV malaria box compound, assay read out with kinase glo as % inhibition.
[7] = biological target: T5, Mitogen-activated protein kinase (Plasmodium falciparum, UniProt Q25917); assay: Final concentrations were 1 uM ATP, 0.5 mM DTT, 1 mM MgCl2, 0.5 mg/mL BSA, and 10 ug/ml MAP2 in a buffer of 50 mM HEPES (pH 7.0). 0.5 mg/mL histone III-S served as the substrate (13); 100 uM AMP-PNP, an ATP analog, was used as a control inhibitor. Incubation time was 4 hours.
T5 sequence (Q25917 whole entry): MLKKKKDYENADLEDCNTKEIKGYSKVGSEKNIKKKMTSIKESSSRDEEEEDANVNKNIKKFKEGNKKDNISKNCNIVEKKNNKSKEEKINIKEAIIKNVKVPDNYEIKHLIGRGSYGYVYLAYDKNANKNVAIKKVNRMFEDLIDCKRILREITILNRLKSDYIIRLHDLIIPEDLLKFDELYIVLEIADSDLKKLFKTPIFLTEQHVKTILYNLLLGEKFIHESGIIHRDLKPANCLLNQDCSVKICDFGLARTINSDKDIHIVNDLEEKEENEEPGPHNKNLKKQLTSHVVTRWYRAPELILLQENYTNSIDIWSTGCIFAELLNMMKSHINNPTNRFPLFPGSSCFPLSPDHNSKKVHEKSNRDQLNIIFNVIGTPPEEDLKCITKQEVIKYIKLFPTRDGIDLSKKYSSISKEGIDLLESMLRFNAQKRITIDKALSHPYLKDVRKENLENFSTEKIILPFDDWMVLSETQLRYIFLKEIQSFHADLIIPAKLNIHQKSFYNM

Chain of Lysine--tRNA ligase (Q8IDJ8 whole entry): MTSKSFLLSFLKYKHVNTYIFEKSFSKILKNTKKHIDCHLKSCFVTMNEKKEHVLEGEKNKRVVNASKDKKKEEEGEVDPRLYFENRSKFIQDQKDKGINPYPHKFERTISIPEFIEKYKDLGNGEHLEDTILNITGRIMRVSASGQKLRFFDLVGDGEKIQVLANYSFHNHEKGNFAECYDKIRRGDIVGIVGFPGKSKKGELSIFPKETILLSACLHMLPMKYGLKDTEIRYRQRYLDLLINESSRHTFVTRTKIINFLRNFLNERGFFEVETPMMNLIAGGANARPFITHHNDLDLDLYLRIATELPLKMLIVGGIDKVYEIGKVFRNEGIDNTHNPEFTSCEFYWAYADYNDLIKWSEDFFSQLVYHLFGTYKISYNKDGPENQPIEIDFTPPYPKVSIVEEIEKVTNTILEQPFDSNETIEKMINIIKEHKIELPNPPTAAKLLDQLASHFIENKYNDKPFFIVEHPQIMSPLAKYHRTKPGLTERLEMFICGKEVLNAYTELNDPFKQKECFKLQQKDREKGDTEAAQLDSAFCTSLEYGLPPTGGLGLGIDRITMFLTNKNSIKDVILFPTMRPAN
Chain of Calcium-dependent protein kinase 1 (P62344 whole entry): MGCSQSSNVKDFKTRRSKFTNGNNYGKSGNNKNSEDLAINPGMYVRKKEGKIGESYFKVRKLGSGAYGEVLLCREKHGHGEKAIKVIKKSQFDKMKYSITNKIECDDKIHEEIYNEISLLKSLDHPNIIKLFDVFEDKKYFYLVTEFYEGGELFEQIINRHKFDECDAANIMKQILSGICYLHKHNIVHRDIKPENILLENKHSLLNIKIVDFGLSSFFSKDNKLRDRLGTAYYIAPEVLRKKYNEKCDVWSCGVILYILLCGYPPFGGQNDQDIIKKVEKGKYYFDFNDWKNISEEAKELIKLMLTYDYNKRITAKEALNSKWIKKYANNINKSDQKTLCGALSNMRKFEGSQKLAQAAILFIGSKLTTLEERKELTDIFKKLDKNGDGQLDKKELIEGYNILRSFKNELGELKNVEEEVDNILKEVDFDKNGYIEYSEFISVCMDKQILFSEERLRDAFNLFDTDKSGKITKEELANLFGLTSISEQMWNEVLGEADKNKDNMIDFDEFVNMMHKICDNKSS

Structure (SMILES) | IC50 [1] | IC50 [2] | IC50 [3] | IC50 [4] | IC50 [5] | IC50 [6] | IC50 [7]
CCOc1ccc2nc(C)cc(Nc3ccc(N(C)C)cc3)c2c1 | > 2.5 µM | > 1 µM | > 1 µM | > 1 µM | > 1 µM | > 2.5 µM | > 1 µM
COc1ccc(C=C2SC(Nc3ccc(F)cc3)=NC2=O)c(OC)c1 | > 2.5 µM | > 1 µM | > 1 µM | > 1 µM | > 1 µM | > 2.5 µM | > 1 µM
O=C(Nc1ccc(-c2nc3cc(NC(=O)c4ccc(Cl)cc4)ccc3[nH]2)cc1)c1ccc(Cl)cc1 | > 2.5 µM | > 1 µM | > 1 µM | > 1 µM | > 1 µM | > 2.5 µM | > 1 µM
CCOC(=O)c1cnc2ccc(OC)cc2c1Nc1ccc(N2CCN(C)CC2)cc1 | > 2.5 µM | > 1 µM | > 1 µM | > 1 µM | > 1 µM | > 2.5 µM | > 1 µM
COc1ccccc1C(=O)ON=C(N)Cc1cccc2ccccc12 | > 2.5 µM | > 1 µM | > 1 µM | > 1 µM | > 1 µM | > 2.5 µM | > 1 µM
CN1C=C(c2ccc3ccccc3n2)C(c2c[nH]c3ccccc23)c2ccccc21 (configuration not stated) | > 2.5 µM | > 1 µM | > 1 µM | > 1 µM | > 1 µM | > 2.5 µM | > 1 µM
CCOc1ccc2nc(C)cc(Nc3ccc(Br)cc3)c2c1 | > 2.5 µM | > 1 µM | > 1 µM | > 1 µM | > 1 µM | > 2.5 µM | > 1 µM
COc1cc2c3cc1Oc1c(OC)c(OC)cc4c1C(Cc1ccc(O)c(c1)Oc1ccc(cc1)CC3N(C)CC2)N(C)CC4 (configuration not stated) | > 2.5 µM | > 1 µM | > 1 µM | > 1 µM | > 1 µM | > 2.5 µM | > 1 µM
CCOC(=O)c1cnc2ccc(OC)cc2c1NCc1ccccc1 | > 2.5 µM | > 1 µM | > 1 µM | > 1 µM | > 1 µM | > 2.5 µM | > 1 µM
CCOC(=O)C1=CN(C)C=C(C(=O)OCC)C1c1cc(Br)c(OCC)c(OC)c1 | > 2.5 µM | > 1 µM | > 1 µM | > 1 µM | > 1 µM | > 2.5 µM | > 1 µM
CN1CCN(c2nc(Nc3ccc(O)cc3)nc3ccccc23)CC1 | > 2.5 µM | > 1 µM | > 1 µM | > 1 µM | > 1 µM | > 2.5 µM | > 1 µM
